Positions of bridges follow the written chain, without caps; N, C: chain ends. Residues, ends and D or L forms follow the SMILES beside them.
Tested on: cirrhotic patients with tense ascites
Settings: human, in vivo
Experimental: Patient selection criteria: 24 clinically stable cirrhotic patients with tense ascites in need of therapeutic paracentesis were recruited to the study.
Treatment: Both groups received therapeutic paracentesis according to the usual protocol of the study centre. […] Plasma renin and aldosterone levels were measured as markers of blood volume. Certain other parameters were determined as secondary criteria for successful treatment.

SMILES: NCCCC[C@H](NC(=O)[C@@H]1CCCN1C(=O)[C@@H]1CSSC[C@H](NC(=O)CNC(=O)CNC(=O)CN)C(=O)N[C@@H](Cc2ccc(O)cc2)C(=O)N[C@@H](Cc2ccccc2)C(=O)N[C@@H](CCC(N)=O)C(=O)N[C@@H](CC(N)=O)C(=O)N1)C(=O)NCC(N)=O [Terlipressin] (H-GGGCYFQNCPKG-NH2; disulfide 4-9)
- Creatininaemia: 72 ± 8
- Natraemia: 133 ± 1 mmol/L

— patent publication US20040102362A1, “Protocol for paracentesis” (priority 2000, published 2004)
